In ChEMBL document CHEMBL1909046, “DrugMatrix in vitro pharmacology data”:

Assays:
[1] = biological target: Kappa-type opioid receptor (Homo sapiens, UniProt P41145); assay: DRUGMATRIX: Opiate kappa (OP2, KOP) radioligand binding (ligand: [3H] Diprenorphine); assay type: cell membranes, HEK293, Membrane; details: Not Active = under 50% inhibition at 10 µM
Calcitonin receptor = biological target: T1, Calcitonin receptor (Homo sapiens, UniProt P30988); assay type: cell membranes, Membrane; details: t47d; note: in other assays of this panel Not Active means under 50% inhibition at 10 µM
T1 sequence (P30988 whole entry): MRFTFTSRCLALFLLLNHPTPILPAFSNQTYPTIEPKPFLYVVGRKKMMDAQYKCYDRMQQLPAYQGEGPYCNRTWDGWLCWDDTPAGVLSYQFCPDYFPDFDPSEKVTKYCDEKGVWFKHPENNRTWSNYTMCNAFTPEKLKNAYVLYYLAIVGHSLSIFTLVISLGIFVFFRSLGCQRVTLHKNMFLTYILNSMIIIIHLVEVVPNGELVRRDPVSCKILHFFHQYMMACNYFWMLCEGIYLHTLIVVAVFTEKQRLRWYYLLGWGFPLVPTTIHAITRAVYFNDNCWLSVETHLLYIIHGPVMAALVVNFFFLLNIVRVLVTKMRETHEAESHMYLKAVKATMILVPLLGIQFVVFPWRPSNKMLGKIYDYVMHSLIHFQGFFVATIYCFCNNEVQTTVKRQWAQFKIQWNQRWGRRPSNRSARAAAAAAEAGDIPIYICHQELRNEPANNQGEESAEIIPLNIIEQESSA

Cytochrome P450 2A6 = biological target: T2, Cytochrome P450 2A6 (Homo sapiens, UniProt P11509); details: bti-tn-5b1-4; note: in other assays of this panel Not Active means under 50% inhibition at 10 µM
T2 sequence (P11509 whole entry): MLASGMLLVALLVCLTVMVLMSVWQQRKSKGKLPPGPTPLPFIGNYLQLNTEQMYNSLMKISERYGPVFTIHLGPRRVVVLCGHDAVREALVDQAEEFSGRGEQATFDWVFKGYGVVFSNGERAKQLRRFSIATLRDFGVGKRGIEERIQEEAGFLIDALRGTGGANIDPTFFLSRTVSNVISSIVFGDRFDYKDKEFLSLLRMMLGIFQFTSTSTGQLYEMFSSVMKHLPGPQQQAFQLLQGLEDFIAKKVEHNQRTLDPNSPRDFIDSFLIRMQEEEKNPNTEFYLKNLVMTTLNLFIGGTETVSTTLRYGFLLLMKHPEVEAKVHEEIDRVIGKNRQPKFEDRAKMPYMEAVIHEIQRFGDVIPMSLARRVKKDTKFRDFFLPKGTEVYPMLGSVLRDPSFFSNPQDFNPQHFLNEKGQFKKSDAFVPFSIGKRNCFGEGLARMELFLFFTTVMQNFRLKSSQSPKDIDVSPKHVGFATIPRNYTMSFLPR

[2] = biological target: T3, C-C chemokine receptor type 4 (Homo sapiens, UniProt P51679); assay type: cell membranes, Membrane; details: chem-1; note: in other assays of this panel Not Active means under 50% inhibition at 10 µM
T3 sequence (P51679 whole entry): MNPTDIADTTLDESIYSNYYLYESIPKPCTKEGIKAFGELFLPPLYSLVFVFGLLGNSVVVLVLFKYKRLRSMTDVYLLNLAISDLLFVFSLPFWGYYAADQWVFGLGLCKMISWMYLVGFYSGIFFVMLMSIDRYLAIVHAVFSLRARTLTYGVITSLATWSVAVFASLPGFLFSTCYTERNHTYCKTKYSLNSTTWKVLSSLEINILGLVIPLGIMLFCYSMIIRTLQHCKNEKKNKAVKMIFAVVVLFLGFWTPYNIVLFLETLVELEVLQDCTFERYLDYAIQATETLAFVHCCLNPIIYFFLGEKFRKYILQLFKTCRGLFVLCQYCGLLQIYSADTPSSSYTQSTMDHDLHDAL

[3] = biological target: T4, Cholecystokinin receptor type A (Homo sapiens, UniProt P32238); assay type: cell membranes, Membrane; details: 1321-n1; note: in other assays of this panel Not Active means under 50% inhibition at 10 µM
T4 sequence (P32238 whole entry): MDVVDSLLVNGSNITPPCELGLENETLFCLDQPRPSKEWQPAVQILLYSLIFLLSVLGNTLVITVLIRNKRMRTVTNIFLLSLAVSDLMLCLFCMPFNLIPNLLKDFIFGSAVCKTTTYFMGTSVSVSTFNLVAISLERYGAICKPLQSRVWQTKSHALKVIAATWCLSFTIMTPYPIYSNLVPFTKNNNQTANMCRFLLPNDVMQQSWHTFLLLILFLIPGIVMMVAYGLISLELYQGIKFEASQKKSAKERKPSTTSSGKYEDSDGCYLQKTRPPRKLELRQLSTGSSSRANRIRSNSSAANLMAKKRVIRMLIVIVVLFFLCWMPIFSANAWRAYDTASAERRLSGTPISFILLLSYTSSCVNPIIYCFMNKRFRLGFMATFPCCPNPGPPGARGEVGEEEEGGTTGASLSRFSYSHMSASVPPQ

D(1A) dopamine receptor = D(1A) dopamine receptor (Homo sapiens, UniProt P21728); assay: DRUGMATRIX: Dopamine D1 radioligand binding (ligand: [3H] SCH-23390); assay type: cell membranes, Membrane; details: cho; Not Active = under 50% inhibition at 10 µM
Chain of D(1A) dopamine receptor (P21728 whole entry): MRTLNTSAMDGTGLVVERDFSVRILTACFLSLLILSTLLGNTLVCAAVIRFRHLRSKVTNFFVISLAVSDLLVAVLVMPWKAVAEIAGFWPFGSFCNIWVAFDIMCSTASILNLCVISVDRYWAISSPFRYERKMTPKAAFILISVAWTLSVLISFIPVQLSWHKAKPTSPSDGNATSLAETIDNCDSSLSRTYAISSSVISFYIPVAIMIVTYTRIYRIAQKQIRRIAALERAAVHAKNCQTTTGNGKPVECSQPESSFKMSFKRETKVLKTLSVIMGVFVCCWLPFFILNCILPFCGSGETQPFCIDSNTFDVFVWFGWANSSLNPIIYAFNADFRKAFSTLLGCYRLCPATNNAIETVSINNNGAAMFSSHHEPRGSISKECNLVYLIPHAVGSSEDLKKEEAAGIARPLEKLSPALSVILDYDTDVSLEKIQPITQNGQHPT

Caspase-1 = biological target: T5, Caspase-1 (Homo sapiens, UniProt P29466); set-up: species or system Escherichia coli
T5 sequence (P29466 whole entry): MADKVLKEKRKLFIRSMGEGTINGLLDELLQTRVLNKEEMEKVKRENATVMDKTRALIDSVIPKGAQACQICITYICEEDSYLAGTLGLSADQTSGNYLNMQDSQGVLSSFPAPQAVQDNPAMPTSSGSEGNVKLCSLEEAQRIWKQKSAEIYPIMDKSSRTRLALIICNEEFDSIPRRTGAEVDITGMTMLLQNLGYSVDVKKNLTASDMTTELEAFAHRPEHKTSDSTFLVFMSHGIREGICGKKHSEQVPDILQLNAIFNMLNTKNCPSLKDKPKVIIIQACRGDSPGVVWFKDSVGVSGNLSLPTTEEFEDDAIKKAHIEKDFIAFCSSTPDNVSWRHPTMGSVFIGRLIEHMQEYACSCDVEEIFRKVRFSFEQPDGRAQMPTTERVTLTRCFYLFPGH

Cytochrome P450 2C19 = Cytochrome P450 2C19 (Homo sapiens, UniProt P33261); details: bti-tn-5b1-4; note: in other assays of this panel Not Active means under 50% inhibition at 10 µM
Chain of Cytochrome P450 2C19 (P33261 whole entry): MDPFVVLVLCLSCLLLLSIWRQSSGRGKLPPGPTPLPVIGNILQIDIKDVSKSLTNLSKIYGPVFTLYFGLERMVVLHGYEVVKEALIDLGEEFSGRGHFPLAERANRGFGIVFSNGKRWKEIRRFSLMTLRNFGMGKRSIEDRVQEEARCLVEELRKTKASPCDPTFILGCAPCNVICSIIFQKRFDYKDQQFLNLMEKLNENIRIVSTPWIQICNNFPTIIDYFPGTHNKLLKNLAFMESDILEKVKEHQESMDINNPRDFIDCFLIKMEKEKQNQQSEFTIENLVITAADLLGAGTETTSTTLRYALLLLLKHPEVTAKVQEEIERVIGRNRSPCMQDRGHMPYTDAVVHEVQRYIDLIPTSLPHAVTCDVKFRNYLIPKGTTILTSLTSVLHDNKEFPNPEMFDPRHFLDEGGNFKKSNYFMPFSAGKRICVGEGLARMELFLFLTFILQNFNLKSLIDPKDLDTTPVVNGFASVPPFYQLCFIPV

Chain of Kappa-type opioid receptor (P41145 whole entry): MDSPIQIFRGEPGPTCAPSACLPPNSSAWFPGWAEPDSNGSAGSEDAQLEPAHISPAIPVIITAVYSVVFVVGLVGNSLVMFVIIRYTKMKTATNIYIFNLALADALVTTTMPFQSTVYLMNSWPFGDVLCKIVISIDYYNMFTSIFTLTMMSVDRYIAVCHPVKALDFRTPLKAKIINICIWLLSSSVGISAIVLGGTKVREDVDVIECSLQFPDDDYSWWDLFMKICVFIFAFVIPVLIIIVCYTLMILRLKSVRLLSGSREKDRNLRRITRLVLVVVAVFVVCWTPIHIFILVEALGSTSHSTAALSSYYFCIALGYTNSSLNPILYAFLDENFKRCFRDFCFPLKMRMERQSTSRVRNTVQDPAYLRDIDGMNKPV

| Compound | IC50 ([1]; hek293) | IC50 (Calcitonin receptor) | IC50 (Cytochrome P450 2A6) | Ki (Cytochrome P450 2A6) | IC50 [2] | IC50 [3] | IC50 (D(1A) dopamine receptor) | IC50 (Caspase-1) | IC50 (Cytochrome P450 2C19) | Ki (Cytochrome P450 2C19) | IC50 ([1]; read-out: IC50) | Ki ([1]; read-out: Ki) | Ki (Calcitonin receptor) | Ki [2] | Ki [3] | Ki (D(1A) dopamine receptor) | Ki (Caspase-1) |
| --- | --- | --- | --- | --- | --- | --- | --- | --- | --- | --- | --- | --- | --- | --- | --- | --- | --- |
| COc1ccccc1C(=O)N1CCC(Cc2ccccc2)CC1 | Not Active | Not Active | Not Active | Not Active | Not Active | Not Active | Not Active | Not Active |  |  |  |  |  |  |  |  |  |
| Cc1ccccc1C(=O)N1CCC(Cc2ccccc2)CC1 | Not Active | Not Active | Not Active | Not Active | Not Active | Not Active | Not Active | Not Active |  |  |  |  |  |  |  |  |  |
| S=C=Nc1cccc2ccccc12 [1-NAPHTHYLISOTHIOCYANATE] |  | Not Active | Not Active | Not Active | Not Active | Not Active |  | Not Active | Not Active | Not Active |  |  |  |  |  |  |  |
| C[C@](O)(CS(=O)(=O)c1ccc(F)cc1)C(=O)Nc1ccc(C#N)c(C(F)(F)F)c1 [(R)-BICALUTAMIDE] | Not Active | Not Active | Not Active | Not Active | Not Active | Not Active | Not Active | Not Active |  |  |  |  |  |  |  |  |  |
| CC(=O)Nc1ccc(O)cc1 [ACETAMINOPHEN] |  | Not Active | Not Active | Not Active | Not Active | Not Active | Not Active | Not Active | Not Active | Not Active |  |  |  |  |  |  |  |
| C[C@@]12C(=O)OC(=O)[C@]1(C)[C@H]1CC[C@@H]2O1 [CANTHARIDIN] |  | Not Active | Not Active | Not Active | Not Active | Not Active | Not Active | Not Active | Not Active | Not Active |  |  |  |  |  |  |  |
| O=NN(CCCl)C(=O)NCCCl [CARMUSTINE] | Not Active | Not Active |  |  | Not Active | Not Active | Not Active | Not Active |  |  |  |  |  |  |  |  |  |
| CC1=C(C(=O)O)N2C(=O)[C@@H](NC(=O)[C@H](N)c3ccccc3)[C@H]2SC1 [CEPHALEXIN ANHYDROUS] | Not Active | Not Active | Not Active | Not Active | Not Active | Not Active | Not Active | Not Active |  |  |  |  |  |  |  |  |  |
| O=C(N[C@H](CO)[C@H](O)c1ccc([N+](=O)[O-])cc1)C(Cl)Cl [CHLORAMPHENICOL] | Not Active | Not Active |  |  | Not Active | Not Active | Not Active | Not Active |  |  |  |  |  |  |  |  |  |
| CCOC(=O)C(C)(C)Oc1ccc(Cl)cc1 [CLOFIBRATE] | Not Active | Not Active | Not Active | Not Active | Not Active | Not Active | Not Active | Not Active |  |  |  |  |  |  |  |  |  |
| C[C@@H]1C[C@@H]([C@H](O)CC2CC(=O)NC(=O)C2)C(=O)[C@@H](C)C1 [CYCLOHEXIMIDE] |  | Not Active |  |  | Not Active | Not Active | Not Active | Not Active |  |  |  |  |  |  |  |  |  |
| C/C=C/C[C@@H](C)[C@@H](O)[C@H]1C(=O)N[C@@H](CC)C(=O)N(C)CC(=O)N(C)[C@@H](CC(C)C)C(=O)N[C@@H](C(C)C)C(=O)N(C)[C@@H](CC(C)C)C(=O)N[C@@H](C)C(=O)N[C@H](C)C(=O)N(C)[C@@H](CC(C)C)C(=O)N(C)[C@@H](CC(C)C)C(=O)N(C)[C@@H](C(C)C)C(=O)N1C [CYCLOSPORINE] | Not Active | Not Active |  |  | Not Active | Not Active | Not Active | Not Active |  |  |  |  |  |  |  |  |  |
| COP(=O)(OC)OC=C(Cl)Cl [DICHLORVOS] |  | Not Active | Not Active | Not Active | Not Active | Not Active | Not Active | Not Active | Not Active | Not Active |  |  |  |  |  |  |  |
| CN(C)c1ccc(C(=C2C=CC(=[N+](C)C)C=C2)c2ccc(N(C)C)cc2)cc1.[Cl-] [GENTIAN VIOLET] |  | Not Active | Not Active | Not Active | Not Active | Not Active |  | Not Active | Not Active | Not Active | 1540 nM | 616 nM |  |  |  |  |  |
| NC(=O)NO [HYDROXYUREA] | Not Active | Not Active |  |  | Not Active | Not Active | Not Active | Not Active |  |  |  |  |  |  |  |  |  |
| COc1ccc2cc([C@H](C)C(=O)O)ccc2c1 [NAPROXEN] | Not Active | Not Active |  |  | Not Active | Not Active | Not Active | Not Active |  |  |  |  |  |  |  |  |  |
| CCN[C@@H]1C[C@H](N)[C@@H](O[C@H]2OC(CN)=CC[C@H]2N)[C@H](O)[C@H]1O[C@H]1OC[C@](C)(O)[C@H](NC)[C@H]1O [NETILMICIN] | Not Active | Not Active | Not Active | Not Active | Not Active | Not Active | Not Active | Not Active |  |  |  |  |  |  |  |  |  |
| COC(=O)C1=C(C)NC(C)=C(C(=O)OCC(C)C)C1c1ccccc1[N+](=O)[O-] (centres undefined) [NISOLDIPINE] | Not Active | Not Active | Not Active | Not Active | Not Active | Not Active | Not Active | Not Active |  |  |  |  |  |  |  |  |  |
| CCOC(=O)C1=C(C)NC(C)=C(C(=O)OC)C1c1cccc([N+](=O)[O-])c1 (centres undefined) [NITRENDIPINE] | Not Active | Not Active | Not Active | Not Active | Not Active | Not Active | Not Active | Not Active |  |  |  |  |  |  |  |  |  |
| CCn1cc(C(=O)O)c(=O)c2cc(F)c(N3CCN(C)CC3)cc21 [PEFLOXACIN] | Not Active | Not Active |  |  | Not Active | Not Active | Not Active | Not Active |  |  |  |  |  |  |  |  |  |
| CADMIUM DICHLORIDE |  | Not Active | Not Active | Not Active | Not Active | Not Active | Not Active | Not Active | Not Active | Not Active |  |  | Not Active | Not Active | Not Active | Not Active | Not Active |
